# The supplement of paper PMC11208160
# Test: recombinant UMI read abundance after kanamycin selection (control-corrected) (log10(CPM+1)); higher = more efficient recombination; extreme values may be limits of the assay; sequences stand for … in AGTGCAGAGAAAATCGGCCAGTTTTCTCTGCCTGCAGTCCGCATGCCGTGGGACCCCTTGGGTTCTAACCTGTTGCCTAGATTTATGCAGCGGACTGCCTTTCTCCCAAAGTGATAAACCGG…AGGTTGGTTTCACT; site = the 11-nt donor
# Outline: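 In Escherichia coli, a pool of donor and donor-binding-loop pairs, each with a 12-nt UMI, was tested for the IS621 bridge recombinase. Plating was on IPTG (0.07 mM) plus kanamycin, or without selection, in two replicates. Recombinant UMIs were amplified by PCR across the donor–target junction and sequenced, and counts were reported as log10(CPM+1) after averaging and control-derived scaling.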
# 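Note: IS621 bridge recombinase in Escherichia coli cells against a fixed T5 target plasmid.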
row,Sequence,recombinant UMI read abundance (log10)
1,CGGCCCACATGGACCGGTTTTCCCGGTAATCCGTATTTGTG (site CGGCCCACTCA),0.024
2,CGGCCGACATGGACCGGTTTTCCCGGTAATCCGTATTTGTA (site CGGCCGACTTA),1.2
3,CGGCCTCCATGGACCGGTTTTCCCGGTAATCCGTATTTGTT (site CGGAATCCTAA),0.0121
4,CGGCCTCCATGGACCGGTTTTCCCGGTAATCCGTATTTGTT (site CGGCCTCCTAA),0.0159
5,CGGCGCCCATGGACCGGTTTTCCCGGTAATCCGTATTTGAG (site CGGCGCCCTCT),0.00618
6,CGGCGCCCATGGACCGGTTTTCCCGGTAATCCGTATTTGTC (site CGGCGCCCTGA),1.85
7,CGGCTTTCATGGACCGGTTTTCCCGGTAATCCGTATTTGGC (site CGGCTTTCTGC),0.438
8,CGGGAAACATGGACCGGTTTTCCCGGTAATCCGTATTTGAT (site CGGGAAACTAT),2.27
9,CGGGAAACATGGACCGGTTTTCCCGGTAATCCGTATTTGAT (site CGGGAACCTAT),0.00381
10,CGGGAAACATGGACCGGTTTTCCCGGTAATCCGTATTTGAT (site CGGGAAGCTAT),2.21
11,CGGGAAACATGGACCGGTTTTCCCGGTAATCCGTATTTGAT (site CGGGAATCTAT),1.74
12,CGGGAACCATGGACCGGTTTTCCCGGTAATCCGTATTTGAT (site AGGGAACCTAT),0
13,CGGGAACCATGGACCGGTTTTCCCGGTAATCCGTATTTGAT (site CAGGAACCTAT),0
14,CGGGAACCATGGACCGGTTTTCCCGGTAATCCGTATTTGAT (site CCGGAACCTAT),0
15,CGGGAACCATGGACCGGTTTTCCCGGTAATCCGTATTTGAT (site CGAGAACCTAT),0
16,CGGGAACCATGGACCGGTTTTCCCGGTAATCCGTATTTGAT (site CGCGAACCTAT),0
17,CGGGAACCATGGACCGGTTTTCCCGGTAATCCGTATTTGAT (site CGGAAACCTAT),0
18,CGGGAACCATGGACCGGTTTTCCCGGTAATCCGTATTTGAT (site CGGCAACCTAT),0
19,CGGGAACCATGGACCGGTTTTCCCGGTAATCCGTATTTGAT (site CGGGAAACTAT),0
20,CGGGAACCATGGACCGGTTTTCCCGGTAATCCGTATTTGAT (site CGGGAACCTAA),0.00496
21,CGGGAACCATGGACCGGTTTTCCCGGTAATCCGTATTTGAT (site CGGGAACCTAC),0.0116
22,CGGGAACCATGGACCGGTTTTCCCGGTAATCCGTATTTGAT (site CGGGAACCTAG),0
23,CGGGAACCATGGACCGGTTTTCCCGGTAATCCGTATTTGAT (site CGGGAACCTAT),0
24,CGGGAACCATGGACCGGTTTTCCCGGTAATCCGTATTTGAT (site CGGGAACCTCT),0
25,CGGGAACCATGGACCGGTTTTCCCGGTAATCCGTATTTGAT (site CGGGAACCTGT),0

row,Sequence,recombinant UMI read abundance (log10)
1,CGGGAACCATGGACCGGTTTTCCCGGTAATCCGTATTTGAT (site CGGGAACCTTT),0.00554
2,CGGGAACCATGGACCGGTTTTCCCGGTAATCCGTATTTGAT (site CGGGAAGCTAT),0
3,CGGGAACCATGGACCGGTTTTCCCGGTAATCCGTATTTGAT (site CGGGAATCTAT),0
4,CGGGAACCATGGACCGGTTTTCCCGGTAATCCGTATTTGAT (site CGGGACCCTAT),0.0207
5,CGGGAACCATGGACCGGTTTTCCCGGTAATCCGTATTTGAT (site CGGGAGCCTAT),0
6,CGGGAACCATGGACCGGTTTTCCCGGTAATCCGTATTTGAT (site CGGGATCCTAT),0
7,CGGGAACCATGGACCGGTTTTCCCGGTAATCCGTATTTGAT (site CGGGCACCTAT),0.021
8,CGGGAACCATGGACCGGTTTTCCCGGTAATCCGTATTTGAT (site CGGGGACCTAT),0
9,CGGGAACCATGGACCGGTTTTCCCGGTAATCCGTATTTGAT (site CGGGTACCTAT),0
10,CGGGAACCATGGACCGGTTTTCCCGGTAATCCGTATTTGAT (site CGGTAACCTAT),0
11,CGGGAACCATGGACCGGTTTTCCCGGTAATCCGTATTTGAT (site CGTGAACCTAT),0
12,CGGGAACCATGGACCGGTTTTCCCGGTAATCCGTATTTGAT (site CTGGAACCTAT),0
13,CGGGAACCATGGACCGGTTTTCCCGGTAATCCGTATTTGAT (site GGGGAACCTAT),0
14,CGGGAACCATGGACCGGTTTTCCCGGTAATCCGTATTTGAT (site TGGGAACCTAT),0
15,CGGGAACCATGGACCGGTTTTCCCGGTAATCCGTATTTGGT (site CGGGAACCTAA),0.0297
16,CGGGAACCATGGACCGGTTTTCCCGGTAATCCGTATTTGGT (site CGGGAACCTAC),0
17,CGGGAACCATGGACCGGTTTTCCCGGTAATCCGTATTTGGT (site CGGGAACCTAG),0
18,CGGGAACCATGGACCGGTTTTCCCGGTAATCCGTATTTGGT (site CGGGAACCTAT),0
19,CGGGAAGCATGGACCGGTTTTCCCGGTAATCCGTATTTGAT (site CGGGAAACTAT),1.7
20,CGGGAAGCATGGACCGGTTTTCCCGGTAATCCGTATTTGAT (site CGGGAACCTAT),0
21,CGGGAAGCATGGACCGGTTTTCCCGGTAATCCGTATTTGAT (site CGGGAAGCTAT),1.9
22,CGGGAAGCATGGACCGGTTTTCCCGGTAATCCGTATTTGAT (site CGGGAATCTAT),1.85
23,CGGGAATCATGGACCGGTTTTCCCGGTAATCCGTATTTGCC (site CGGGAATCTGG),2.51
24,CGGGAATCATGGACCGGTTTTCCCGGTAATCCGTATTTGCC (site CGGGACTCTGG),1.28
25,CGGGAATCATGGACCGGTTTTCCCGGTAATCCGTATTTGCC (site CGGGAGTCTGG),2.11

row,Sequence,recombinant UMI read abundance (log10)
1,CGGGAATCATGGACCGGTTTTCCCGGTAATCCGTATTTGCC (site CGGGATTCTGG),0.646
2,CGGGACCCATGGACCGGTTTTCCCGGTAATCCGTATTTGAT (site CGGGAACCTAT),0.00853
3,CGGGACCCATGGACCGGTTTTCCCGGTAATCCGTATTTGAT (site CGGGACCCTAT),0.879
4,CGGGACCCATGGACCGGTTTTCCCGGTAATCCGTATTTGAT (site CGGGAGCCTAT),0.00629
5,CGGGACCCATGGACCGGTTTTCCCGGTAATCCGTATTTGAT (site CGGGATCCTAT),0
6,CGGGACGCATGGACCGGTTTTCCCGGTAATCCGTATTTGTA (site CGGGACGCTTA),2.82
7,CGGGACTCATGGACCGGTTTTCCCGGTAATCCGTATTTGCC (site CGGGAATCTGG),2.14
8,CGGGACTCATGGACCGGTTTTCCCGGTAATCCGTATTTGCC (site CGGGACTCTGG),3.01
9,CGGGACTCATGGACCGGTTTTCCCGGTAATCCGTATTTGCC (site CGGGAGTCTGG),0
10,CGGGACTCATGGACCGGTTTTCCCGGTAATCCGTATTTGCC (site CGGGATTCTGG),1.77
11,CGGGAGTCATGGACCGGTTTTCCCGGTAATCCGTATTTGCA (site CGGGAGTCTAG),1.74
12,CGGGAGTCATGGACCGGTTTTCCCGGTAATCCGTATTTGCA (site CGGGAGTCTCG),2.73
13,CGGGAGTCATGGACCGGTTTTCCCGGTAATCCGTATTTGCA (site CGGGAGTCTGG),1.15
14,CGGGAGTCATGGACCGGTTTTCCCGGTAATCCGTATTTGCA (site CGGGAGTCTTG),2.89
15,CGGGCGTCATGGACCGGTTTTCCCGGTAATCCGTATTTGCC (site CGGGAGTCTGG),0
16,CGGGCGTCATGGACCGGTTTTCCCGGTAATCCGTATTTGCC (site CGGGCGTCTGG),2.89
17,CGGGCGTCATGGACCGGTTTTCCCGGTAATCCGTATTTGCC (site CGGGGGTCTGG),0
18,CGGGCGTCATGGACCGGTTTTCCCGGTAATCCGTATTTGCC (site CGGGTGTCTGG),0
19,CGGGGAACATGGACCGGTTTTCCCGGTAATCCGTATTTGTT (site CGAGGAACTAA),2.44
20,CGGGGAACATGGACCGGTTTTCCCGGTAATCCGTATTTGTT (site CGCGGAACTAA),0.00411
21,CGGGGAACATGGACCGGTTTTCCCGGTAATCCGTATTTGTT (site CGGGGAACTAA),2.6
22,CGGGGAACATGGACCGGTTTTCCCGGTAATCCGTATTTGTT (site CGTGGAACTAA),0.548
23,CGGGTACCATGGACCGGTTTTCCCGGTAATCCGTATTTGTA (site CGGGTACCTTA),0.00704
24,CGGGTCACATGGACCGGTTTTCCCGGTAATCCGTATTTGGC (site CGGGTCACTGC),3.54
25,CGGGTGTCATGGACCGGTTTTCCCGGTAATCCGTATTTGCC (site CGGGAGTCTGG),0.659
